Results as given in patent publication US9221834B2 (Merck Sharp & Dohme Corp., priority 2010, dated 2015).

target: T1, recombinant CETP (rCETP) (Homo sapiens, UniProt P11597); test: RTA assay using recombinant CETP (2% RTA); type: biochemical; settings: RTA assay in 2% human serum; read-out: IC50
T1 sequence (P11597 18-493): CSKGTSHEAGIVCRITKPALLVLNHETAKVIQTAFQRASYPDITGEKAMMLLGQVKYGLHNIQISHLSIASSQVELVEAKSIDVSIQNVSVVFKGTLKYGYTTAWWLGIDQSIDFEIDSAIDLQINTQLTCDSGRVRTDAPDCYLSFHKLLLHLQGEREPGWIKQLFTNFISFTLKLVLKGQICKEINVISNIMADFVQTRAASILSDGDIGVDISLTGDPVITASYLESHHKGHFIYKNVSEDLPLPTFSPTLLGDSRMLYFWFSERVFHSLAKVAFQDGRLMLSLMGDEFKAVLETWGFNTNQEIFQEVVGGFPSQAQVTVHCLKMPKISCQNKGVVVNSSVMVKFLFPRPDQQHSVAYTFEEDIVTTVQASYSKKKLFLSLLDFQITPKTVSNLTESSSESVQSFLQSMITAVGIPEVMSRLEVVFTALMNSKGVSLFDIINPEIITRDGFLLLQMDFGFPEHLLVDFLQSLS
Method in brief: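 Compounds preincubated 1 h at 37 °C with assay cocktail (CETP buffer: 50 mM Tris pH 7.4, 100 mM NaCl, 1 mM EDTA; human HDL acceptor); transfer started with [3H]cholesteryl oleate- or [3H]triolein-labelled LDL, 60 min at 37 °C. LDL PEG-precipitated; supernatant counted by scintillation, blank-corrected; IC50 from 4-parameter sigmoidal fit of % inhibition vs DMSO control.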

Row | SMILES | IC50
1 | COc1ccc(-c2ccc(C(=O)O)nc2)cc1-c1ccc(N2CCC2)nc1CN1C(=O)O[C@H](c2cc(C(F)(F)F)cc(C(F)(F)F)c2)[C@@H]1C [Example 120] | 33 nM
2 | COc1ccc(-c2ccc(C(=O)O)cn2)cc1-c1ccc(N2CCC2)nc1CN1C(=O)O[C@H](c2cc(C(F)(F)F)cc(C(F)(F)F)c2)[C@@H]1C [Example 121] | 28 nM
3 | COc1ccc(CC(C)(C)C(=O)O)cc1-c1ccc(N2CCC2)nc1CN1C(=O)O[C@H](c2cc(C(F)(F)F)cc(C(F)(F)F)c2)[C@@H]1C [Example 122, 3-{3-[6-Azetidin-1-yl-2-({(4S,5R)-5-[3,5-bis(trifluoromethyl)phenyl]-4-methyl-2-oxo-1,3-oxazolidin-3-yl}methyl)pyridin-3-yl]-4-methoxyphenyl}-2,2-dimethylpropanoic acid] | 15 nM
4 | CCOC(=O)[C@@H]1CC1c1ccc(OC)c(-c2cnc(N3CCC3)nc2CN2C(=O)O[C@H](c3cc(C(F)(F)F)cc(C(F)(F)F)c3)[C@@H]2C)c1 (stereo partly shown) [Example 124] | 33 nM
5 | COc1ccc([C@H]2CC[C@H](C(=O)OC)CC2)cc1-c1cnc(N2CCC2)nc1CN1C(=O)O[C@H](c2cc(C(F)(F)F)cc(C(F)(F)F)c2)[C@@H]1C [Example 125] | 60 nM
6 | CCOC(=O)C[C@@H]1CCc2cc(OC)c(-c3cnc(N4CCC4)nc3CN3C(=O)O[C@H](c4cc(C(F)(F)F)cc(C(F)(F)F)c4)[C@@H]3C)cc21 [Example 126] | 134 nM
7 | COc1ccc(CC(C)(C)C(=O)OC(C)(C)C)cc1-c1cnc(N2CCC2)nc1CN1C(=O)O[C@H](c2cc(C(F)(F)F)cc(C(F)(F)F)c2)[C@@H]1C [Example 127] | 114 nM
8 | COc1ccc([C@H]2CC[C@H](C(=O)OC)CC2)cc1-c1cnc(N2CC(F)(F)C2)nc1CN1C(=O)O[C@H](c2cc(C(F)(F)F)cc(C(F)(F)F)c2)[C@@H]1C [Example 128] | 1080 nM
9 | CCOC(=O)[C@@H]1CC1c1ccc(OC)c(-c2cnc(N3CC(F)(F)C3)nc2CN2C(=O)O[C@H](c3cc(C(F)(F)F)cc(C(F)(F)F)c3)[C@@H]2C)c1 (stereo partly shown) [Example 129] | 18 nM
10 | CCOC(=O)C[C@@H]1CCc2cc(OC)c(-c3cnc(N4CC(F)(F)C4)nc3CN3C(=O)O[C@H](c4cc(C(F)(F)F)cc(C(F)(F)F)c4)[C@@H]3C)cc21 [Example 130] | 32 nM
11 | COC(=O)c1ccc(-c2ccc(OC)c(-c3cnc(N4CC(F)(F)C4)nc3CN3C(=O)O[C@H](c4cc(C(F)(F)F)cc(C(F)(F)F)c4)[C@@H]3C)c2)c(C)c1 [Example 131] | 10 nM
12 | COC(=O)c1ccc(-c2cc(-c3cnc(N4CC(F)(F)C4)nc3CN3C(=O)O[C@H](c4cc(C(F)(F)F)cc(C(F)(F)F)c4)[C@@H]3C)c(OC)cc2F)c(C)c1 [Example 132] | 4 nM
13 | CCc1ccc(-c2ccc(C(=O)OC)cc2C)cc1-c1cnc(N2CC(F)(F)C2)nc1CN1C(=O)O[C@H](c2cc(C(F)(F)F)cc(C(F)(F)F)c2)[C@@H]1C [Example 133] | 39 nM
14 | COC(=O)c1ccc(-c2ccc(OC)c(-c3cnc(N4CC(OC)C4)nc3CN3C(=O)O[C@H](c4cc(C(F)(F)F)cc(C(F)(F)F)c4)[C@@H]3C)c2)c(C)c1 [Example 135] | 89 nM
15 | COC(=O)c1ccc(-c2cc(-c3cnc(N4CC(OC)C4)nc3CN3C(=O)O[C@H](c4cc(C(F)(F)F)cc(C(F)(F)F)c4)[C@@H]3C)c(OC)cc2F)c(C)c1 [Example 136] | 55 nM
16 | CCc1ccc(-c2ccc(C(=O)OC)cc2C)cc1-c1cnc(N2CC(OC)C2)nc1CN1C(=O)O[C@H](c2cc(C(F)(F)F)cc(C(F)(F)F)c2)[C@@H]1C [Example 137] | 605 nM
17 | COC(=O)[C@H]1CC[C@H](c2ccc(Cl)c(-c3cnc(N4CC(OC)C4)nc3CN3C(=O)O[C@H](c4cc(C(F)(F)F)cc(C(F)(F)F)c4)[C@@H]3C)c2)CC1 [Example 138] | 2030 nM
18 | COC(=O)CCc1ccc(OC)c(-c2c(C)nc(N3CC(F)(F)C3)nc2CN2C(=O)O[C@H](c3cc(C(F)(F)F)cc(C(F)(F)F)c3)[C@@H]2C)c1 [Example 139, Methyl 3-{3-[4-({(4S,5R)-5-[3,5-bis(trifluoromethyl)phenyl]-4-methyl-2-oxo-1,3-oxazolidin-3-yl}methyl)-2-(3,3-difluoroazetidin-1-yl)-6-methylpyrimidin-5-yl]-4-methoxyphenyl}propanoate] | 13 nM
19 | COC(=O)CCc1ccc(OC)c(-c2cnc(N3CC(OC)C3)nc2CN2C(=O)O[C@H](c3cc(C(F)(F)F)cc(C(F)(F)F)c3)[C@@H]2C)c1 [Example 140, Methyl 3-{3-[4-({(4S,5R)-5-[3,5-bis(trifluoromethyl)phenyl]-4-methyl-2-oxo-1,3-oxazolidin-3-yl}methyl)-2-(3-methoxyazetidin-1-yl)pyrimidin-5-yl]-4-methoxyphenyl}propanoate] | 344 nM
20 | COC(=O)CCc1ccc(OC)c(-c2cnc(N3CC(F)C3)nc2CN2C(=O)O[C@H](c3cc(C(F)(F)F)cc(C(F)(F)F)c3)[C@@H]2C)c1 [Example 143] | 7 nM

Row | SMILES | IC50
21 | COC(=O)CCc1ccc(OC)c(-c2cnc(N3CC(F)(F)C3)nc2CN2C(=O)O[C@H](c3cc(C(F)(F)F)cc(C(F)(F)F)c3)[C@@H]2C)c1 [Example 144] | 17 nM
22 | COC(=O)CC(C)(C)c1ccc(OC)c(-c2cnc(N3CCC3)nc2CN2C(=O)O[C@H](c3cc(C(F)(F)F)cc(C(F)(F)F)c3)[C@@H]2C)c1 [Example 145] | 16 nM
23 | COC(=O)[C@H]1CC[C@H](c2ccc(Cl)c(-c3cnc(N4CCC4)nc3CN3C(=O)O[C@H](c4cc(C(F)(F)F)cc(C(F)(F)F)c4)[C@@H]3C)c2)CC1 [Example 146] | 160 nM
24 | COC(=O)[C@H]1CC[C@H](c2ccc(Cl)c(-c3cnc(N4CC(F)(F)C4)nc3CN3C(=O)O[C@H](c4cc(C(F)(F)F)cc(C(F)(F)F)c4)[C@@H]3C)c2)CC1 [Example 147] | 94 nM
25 | COc1cc(F)c(-c2ccc(C(=O)O)cc2C)cc1-c1cnc(N2CC(F)C2)nc1CN1C(=O)O[C@H](c2cc(C(F)(F)F)cc(C(F)(F)F)c2)[C@@H]1C [Example 152, 5′-[4-({(4S,5R)-5-[3,5-bis(trifluoromethyl)phenyl]-4-methyl-2-oxo-1,3-oxazolidin-3-yl}methyl)-2-(3-fluoroazetidin-1-yl)pyrimidin-5-yl]-2′-fluoro-4′-methoxy-2-methylbiphen-4-carboxylic acid] | 10 nM
26 | COc1ccc(C2C[C@H]2C(=O)O)cc1-c1cnc(N2CCC2)nc1CN1C(=O)O[C@H](c2cc(C(F)(F)F)cc(C(F)(F)F)c2)[C@@H]1C (stereo partly shown) [Example 153] | 53 nM
27 | COc1ccc([C@H]2CC[C@H](C(=O)O)CC2)cc1-c1cnc(N2CCC2)nc1CN1C(=O)O[C@H](c2cc(C(F)(F)F)cc(C(F)(F)F)c2)[C@@H]1C [Example 154] | 27 nM
28 | COc1cc2c(cc1-c1cnc(N3CCC3)nc1CN1C(=O)O[C@H](c3cc(C(F)(F)F)cc(C(F)(F)F)c3)[C@@H]1C)[C@H](CC(=O)O)CC2 [Example 155] | 40 nM
29 | COc1ccc(CC(C)(C)C(=O)O)cc1-c1cnc(N2CCC2)nc1CN1C(=O)O[C@H](c2cc(C(F)(F)F)cc(C(F)(F)F)c2)[C@@H]1C [Example 156] | 42 nM
30 | COc1ccc([C@H]2CC[C@H](C(=O)O)CC2)cc1-c1cnc(N2CC(F)(F)C2)nc1CN1C(=O)O[C@H](c2cc(C(F)(F)F)cc(C(F)(F)F)c2)[C@@H]1C [Example 157] | 10 nM
31 | COc1ccc(C2C[C@H]2C(=O)O)cc1-c1cnc(N2CC(F)(F)C2)nc1CN1C(=O)O[C@H](c2cc(C(F)(F)F)cc(C(F)(F)F)c2)[C@@H]1C (stereo partly shown) [Example 158] | 21 nM
32 | COc1cc2c(cc1-c1cnc(N3CC(F)(F)C3)nc1CN1C(=O)O[C@H](c3cc(C(F)(F)F)cc(C(F)(F)F)c3)[C@@H]1C)[C@H](CC(=O)O)CC2 [Example 159] | 55 nM
33 | COc1ccc(-c2ccc(C(=O)O)cc2C)cc1-c1cnc(N2CC(F)(F)C2)nc1CN1C(=O)O[C@H](c2cc(C(F)(F)F)cc(C(F)(F)F)c2)[C@@H]1C [Example 160] | 9 nM
34 | COc1cc(F)c(-c2ccc(C(=O)O)cc2C)cc1-c1cnc(N2CC(F)(F)C2)nc1CN1C(=O)O[C@H](c2cc(C(F)(F)F)cc(C(F)(F)F)c2)[C@@H]1C [Example 161] | 7 nM
35 | CCc1ccc(-c2ccc(C(=O)O)cc2C)cc1-c1cnc(N2CC(F)(F)C2)nc1CN1C(=O)O[C@H](c2cc(C(F)(F)F)cc(C(F)(F)F)c2)[C@@H]1C [Example 162] | 6 nM
36 | COc1ccc(C2C[C@@H]2C(=O)O)cc1-c1cnc(N2CC(F)(F)C2)nc1CN1C(=O)O[C@H](c2cc(C(F)(F)F)cc(C(F)(F)F)c2)[C@@H]1C (stereo partly shown) [Example 163] | 14 nM
37 | COc1ccc(-c2ccc(C(=O)O)cc2C)cc1-c1cnc(N2CC(OC)C2)nc1CN1C(=O)O[C@H](c2cc(C(F)(F)F)cc(C(F)(F)F)c2)[C@@H]1C [Example 164] | 16 nM
38 | COc1cc(F)c(-c2ccc(C(=O)O)cc2C)cc1-c1cnc(N2CC(OC)C2)nc1CN1C(=O)O[C@H](c2cc(C(F)(F)F)cc(C(F)(F)F)c2)[C@@H]1C [Example 165] | 11 nM
39 | CCc1ccc(-c2ccc(C(=O)O)cc2C)cc1-c1cnc(N2CC(OC)C2)nc1CN1C(=O)O[C@H](c2cc(C(F)(F)F)cc(C(F)(F)F)c2)[C@@H]1C [Example 166] | 46 nM
40 | COC1CN(c2ncc(-c3cc([C@H]4CC[C@H](C(=O)O)CC4)ccc3Cl)c(CN3C(=O)O[C@H](c4cc(C(F)(F)F)cc(C(F)(F)F)c4)[C@@H]3C)n2)C1 [Example 167] | 771 nM
